Results reported in PubChem BioAssay (NCI).
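Tested at 5 concentrations; 48 h exposure; 96-well plates; endpoints linearly interpolated, else capped at highest concentration. TGI denotes the concentration required for complete inhibition of growth.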

Experiments:
Assay in all cases: NCI anticancer screen, dose series, 48 h
UACC-257 melanoma = test system: UACC-257 melanoma
OVCAR-3 ovarian = test system: OVCAR-3 ovarian
UO-31 renal = test system: UO-31 renal
MCF7 breast = test system: MCF7 breast
HCT-15 colon = test system: HCT-15 colon
DU-145 prostate = test system: DU-145 prostate
NCI-H23 lung = test system: NCI-H23 lung
SK-MEL-2 melanoma = test system: SK-MEL-2 melanoma
COLO 205 colon = test system: COLO 205 colon
MDA-MB-435 = test system: MDA-MB-435
OVCAR-4 ovarian = test system: OVCAR-4 ovarian
MALME-3M melanoma = test system: MALME-3M melanoma
NCI/ADR-RES ovarian = test system: NCI/ADR-RES ovarian
CAKI-1 renal = test system: CAKI-1 renal
K-562 leukemia = test system: K-562 leukemia
UACC-62 melanoma = test system: UACC-62 melanoma
HS 578T breast = test system: HS 578T breast
SF-539 CNS = test system: SF-539 CNS
SK-OV-3 ovarian = test system: SK-OV-3 ovarian

Measured: TGI

O=S1(=O)OCCOS(=O)(=O)C1S(=O)(=O)c1ccc2ccccc2c1
not listed: UACC-62 melanoma | HS 578T breast | SF-539 CNS | SK-OV-3 ovarian
> 100 µM: all other assays above

COc1cc(C=O)cc(/C=N/n2c3ccccc3c3ccccc32)c1O
42.6 µM: MCF7 breast
52.1 µM: COLO 205 colon
47.5 µM: MDA-MB-435
67.7 µM: K-562 leukemia
not listed: SK-MEL-2 melanoma | NCI/ADR-RES ovarian
> 100 µM: all other assays above

O=c1[nH]nc(-c2ccccc2)n1Nc1ccccc1
not listed: MCF7 breast
> 100 µM: all other assays above

COc1ccc(CCCCl)c(C2=NCCc3cc(OC)c(OC)cc32)c1
68.9 µM: COLO 205 colon
not listed: MALME-3M melanoma
> 100 µM: all other assays above

CC(C)Oc1c(O)c2c3c(oc(=O)n3C=CC2c2ccccc2)c1OC(C)C (centres undefined)
60.1 µM: COLO 205 colon
52.2 µM: NCI-H23 lung
37.2 µM: UO-31 renal
33.7 µM: HCT-15 colon
80.5 µM: OVCAR-3 ovarian
40.1 µM: SK-MEL-2 melanoma
> 100 µM: UACC-257 melanoma | MCF7 breast | DU-145 prostate | OVCAR-4 ovarian | NCI/ADR-RES ovarian | SK-OV-3 ovarian
67.7 µM: CAKI-1 renal
43.1 µM: SF-539 CNS

N#C[C@@H](c1nc2ccccc2s1)c1ncccc1[N+](=O)[O-]
17.3 µM: MCF7 breast
27.6 µM: HS 578T breast
19.4 µM: NCI/ADR-RES ovarian
> 31.6 µM: UACC-62 melanoma | HCT-15 colon | DU-145 prostate | SK-MEL-2 melanoma
25.6 µM: UO-31 renal
16.1 µM: NCI-H23 lung
8.8 µM: COLO 205 colon
> 100 µM: UACC-257 melanoma | MDA-MB-435 | OVCAR-4 ovarian | CAKI-1 renal
10.6 µM: OVCAR-3 ovarian
> 61.1 µM: SK-OV-3 ovarian

O=C(O)Cc1c(-c2ccc([N+](=O)[O-])cc2)c(=O)oc2cc(O)ccc12
75.7 µM: MCF7 breast | HCT-15 colon
82 µM: SF-539 CNS
59.9 µM: MALME-3M melanoma
83.6 µM: UO-31 renal
46.2 µM: OVCAR-3 ovarian
93.9 µM: MDA-MB-435
54.6 µM: NCI/ADR-RES ovarian
71.9 µM: HS 578T breast
53.5 µM: UACC-257 melanoma
50.7 µM: SK-MEL-2 melanoma
90 µM: SK-OV-3 ovarian
not listed: OVCAR-4 ovarian | CAKI-1 renal
> 100 µM: all other assays above

COC(=O)C(Cc1ccccc1)NP(=O)(O)OCC1OC(n2cc(Br)c(=O)[nH]c2=O)CC1O (centres undefined)
not listed: CAKI-1 renal
> 100 µM: all other assays above

Cc1ccc(S(=O)(=O)N2CCC(=O)c3cc(Br)ccc32)cc1
46.6 µM: UACC-257 melanoma
31.3 µM: COLO 205 colon
61 µM: OVCAR-3 ovarian
25.3 µM: SF-539 CNS
63.2 µM: SK-OV-3 ovarian
> 49.1 µM: MCF7 breast
18.3 µM: UACC-62 melanoma
4.98 µM: MDA-MB-435
> 73.9 µM: OVCAR-4 ovarian
> 30.9 µM: K-562 leukemia
36.3 µM: SK-MEL-2 melanoma
> 93.9 µM: NCI-H23 lung
58.9 µM: NCI/ADR-RES ovarian
not listed: HS 578T breast
> 100 µM: all other assays above

CCc1cc2c(c3c1CCC3=O)CC1(Cc3ccc(C)cc3C1)C2 (centres undefined)
67.6 µM: SK-MEL-2 melanoma
86.9 µM: HS 578T breast
98 µM: OVCAR-4 ovarian
not listed: UO-31 renal | DU-145 prostate | CAKI-1 renal
> 100 µM: all other assays above

O=c1ccn2n1Cc1ccccc1C2
not listed: MCF7 breast
> 100 µM: all other assays above

CN1C2=C(CC3=C1CC(C)(C)CC3=O)C(=O)CC(C)(C)C2
not listed: UACC-257 melanoma | DU-145 prostate | SK-MEL-2 melanoma | COLO 205 colon | MDA-MB-435 | MALME-3M melanoma
> 100 µM: all other assays above

CN1Cc2cc3cc4c(cc3nc2N(C)C1)OCCO4
not listed: OVCAR-3 ovarian | UO-31 renal | DU-145 prostate | NCI-H23 lung | HS 578T breast
> 100 µM: all other assays above

CCN(C(=O)N[C@@H](Cc1ccccc1)C(=O)N[C@@H](CC(C)C)C(=O)OC)c1ccccc1
32.2 µM: COLO 205 colon
36.1 µM: UACC-62 melanoma | SF-539 CNS
33.3 µM: UO-31 renal
54.3 µM: UACC-257 melanoma
53.8 µM: NCI-H23 lung
72 µM: OVCAR-3 ovarian
31.7 µM: DU-145 prostate
34.5 µM: HCT-15 colon
62 µM: MCF7 breast
84.7 µM: CAKI-1 renal
not listed: MALME-3M melanoma | HS 578T breast
> 100 µM: all other assays above
